In patent US9302998B2, “Aryl triazole compounds with antitumoural activity” (SIGMA-TAU RESEARCH SWITZERLAND S.A., priority 2010, dated 2016):

Columns and labels:
Hsp90 = molecular target: T1, Hsp90 (Homo sapiens, UniProt P07900); test: Fluorescence Polarization (FP) binding, GM-BODIPY displacement from Hsp90; details: GM-BODIPY tracer, 4° C. for 4 hours
T1 construct: purchased Stressgen SPP-776
Summary of the method: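 Hsp90 (125 nM) was mixed with 100 nM GM-BODIPY tracer and serially diluted compounds in HEPES-K buffer (pH 7.3, KCl, MgCl2, Na2MoO4, 0.01% NP40, fresh bovine gamma globulin and 2 mM DTT). Plates were shaken 4 h at 4 °C before FP (mP) reading. IC50 is the concentration displacing 50% of tracer, from nonlinear least-squares fits of triplicate means.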

[1] = system: NCI-H460 non-small cell lung carcinoma; test: Cytotoxicity assay, sulphorodamine B test, NCI-H460; assay type: cell-based; details: for IC50: Homo sapiens, NCI-H460, 72 h, sulphorodamine B
Summary of the method: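 NCI-H460 cells grown in RPMI 1640 with 10% FBS, seeded at ~10% confluence and left 24 h before graded compound concentrations were added for 72 h at 37 °C. TCA-fixed cells stained with 0.4% sulphorodamine B; OD 540 nm vs control cultures gave IC50 for 50% inhibition of survival.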

A431 epidermoid = test: Sulphorodamine B test at single concentration, A431; assay type: cell-based; details: Homo sapiens, A-431; 500 nM, 72 h
Summary of the method: (§1)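 Cells in RPMI 1640 with 10% FBS, seeded at about 10% confluence and allowed 24 h recovery, then treated with a single 500 nM concentration for 72 h at 37° C., in octuplicate. TCA-fixed cells were stained with sulphorodamine B, OD read at 540 nm; cell kill was derived as % decrease in staining versus controls. NB4 suspension cells were centrifuged after incubation.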

A2780 ovarian = test: Sulphorodamine B test at single concentration, A2780; assay type: cell-based; details: Homo sapiens, 500 nM, 72 h
Summary of the method: as §1

[2] = system: MDA-MB436 triple-negative breast; test: Sulphorodamine B test at single concentration, MDA-MB436; assay type: cell-based; details: Homo sapiens, MDA-MB-436; 500 nM, 72 h
Summary of the method: as §1

U87MG glioblastoma = test: Sulphorodamine B test at single concentration, U87MG; assay type: cell-based; details: Homo sapiens, U-87 MG; 500 nM, 72 h
Summary of the method: (§2)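 Cells in EMEM with 10% FBS, seeded at ~10% confluence, attached 24 h, then exposed to 500 nM compound for 72 h at 37 °C, octuplicate. TCA fixation, sulphorodamine B staining, OD at 540 nm; killing expressed as % decrease in dye binding versus control cultures.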

A498 renal = test: Sulphorodamine B test at single concentration, A498; assay type: cell-based; details: Homo sapiens, 500 nM, 72 h
Summary of the method: as §1

HCT116 colon = test: Sulphorodamine B test at single concentration, HCT116; assay type: cell-based; details: Homo sapiens, HCT-116; 500 nM, 72 h
Summary of the method: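 HCT116 colon cells in McCoy's medium with 10% FBS were seeded at ~10% confluence, left 24 h, then exposed to a single 500 nM inhibitor concentration for 72 h at 37°C, in octuplicate. TCA-fixed cells stained with sulphorhodamine B, OD at 540 nm; percent decrease versus control cultures.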

MeWo melanoma = test: Sulphorodamine B test at single concentration, MeWo; assay type: cell-based; details: Homo sapiens, 500 nM, 72 h
Summary of the method: as §2

MiaPaCa2 pancreas = test: Sulphorodamine B test at single concentration, MiaPaCa2; assay type: cell-based; details: Homo sapiens, MIA PaCa-2; 500 nM, 72 h
Summary of the method: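 MiaPaCa2 cells in DMEM with 10% FBS were attached for 24 h, then exposed to a single 500 nM inhibitor concentration for 72 h at 37° C, in octuplicate. Following TCA fixation, sulphorodamine B staining was read as OD at 540 nm; cell kill was the percent decrease in dye binding versus control cultures.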

HeLa cervix uteri = test: Sulphorodamine B test at single concentration, HeLa; assay type: cell-based; details: Homo sapiens, 500 nM, 72 h
Summary of the method: as §1

[3] = system: NB4 promyelocytic leukemia; test: Sulphorodamine B test at single concentration, NB4; assay type: cell-based; details: 500 nM, 72 h, suspension cells
Summary of the method: as §1

IC50 (Hsp90) [nM]	Compound	cytotoxic activity against NCI-H460 NSCLC (in words) [1]	IC50 [1] [nM]	inhibition at 0.5 µM (A431 epidermoid) [%]	inhibition at 0.5 µM (A2780 ovarian) [%]	inhibition at 0.5 µM [2] [%]	inhibition at 0.5 µM (U87MG glioblastoma) [%]	inhibition at 0.5 µM (A498 renal) [%]	inhibition at 0.5 µM (HCT116 colon) [%]	inhibition at 0.5 µM (MeWo melanoma) [%]	inhibition at 0.5 µM (MiaPaCa2 pancreas) [%]	inhibition at 0.5 µM (HeLa cervix uteri) [%]	inhibition at 0.5 µM [3] [%]
> 500	CCOC(=O)c1nnn(-c2cc(Cl)c(O)cc2O)c1-c1ccc(F)cc1 [Example 32, 1-(5-chloro-2,4-dihydroxy-phenyl)-5-(4-fluoro-phenyl)-1H-[1,2,3]triazole-4-carboxylic acid ethyl ester, reference compound]	totally deprived of any interesting biological activity	> 1000	< 30	< 30	< 30	< 30	< 30	< 30	< 30	< 30	< 30	30 to 50
> 500	Oc1cc(O)c(-n2nncc2-c2ccc(F)cc2)cc1Cl [Example 33, 4-chloro-6-[5-(4-fluoro-phenyl)-[1,2,3]triazol-1-yl]-benzene-1,3-diol, reference compound]	totally deprived of any interesting biological activity	> 1000	< 30	< 30	< 30	< 30	< 30	< 30	< 30	< 30	< 30	< 30
